According to patent US20260008760A1, “DIPEPTIDYL PEPTIDASE 1 INHIBITORS AND USES THEREOF” (Insmed Incorporated, priority 2024, published 2026):

Experiments:
[1] = target: DPP1 in HL-60 cells (Homo sapiens, UniProt P53634); experiment: DPP1 Cell IC50 assay; type: cell-based; design: host or cells: HL-60 cells; conditions: 60 min pre-incubation, H-Gly-Phe-AFC substrate, average of n runs, read-out: Avg. IC50 (DPP1 Cell IC50 value ranges)
Method in brief: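 HL-60 cells in PBS (5×10^5 live cells per mL) pre-incubated with compound (0.5% DMSO) 60 min at 37° C, 5% CO2, then H-Gly-Phe-AFC substrate (500 μM stock) added for 30 min. Fluorescence at 400/505 nm; % inhibition vs vehicle wells, IC50 from four-parameter logistic fit.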

[2] = target: human DPP1 enzyme (Homo sapiens, UniProt P53634); experiment: Human DPP1 Enzyme IC50 Assay; type: biochemical; design: was first proteolytically processed into its mature form using recombinant human cathepsin L; purchased R&D Systems; conditions: activated recombinant human DPP1, 400 μM H-Gly-Arg-AMC, 10 minutes pre-incubation at 37° C., pH 6.0; average of n runs; read-out: Avg. IC50 (Human DPP1 enzyme IC50 value ranges)
human DPP1 enzyme, sequence (P53634 25-134 limits assumed): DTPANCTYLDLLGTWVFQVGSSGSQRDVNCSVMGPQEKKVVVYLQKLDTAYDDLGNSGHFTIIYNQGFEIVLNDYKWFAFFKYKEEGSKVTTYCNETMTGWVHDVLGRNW
human DPP1 enzyme, sequence (P53634 231-394 limits assumed): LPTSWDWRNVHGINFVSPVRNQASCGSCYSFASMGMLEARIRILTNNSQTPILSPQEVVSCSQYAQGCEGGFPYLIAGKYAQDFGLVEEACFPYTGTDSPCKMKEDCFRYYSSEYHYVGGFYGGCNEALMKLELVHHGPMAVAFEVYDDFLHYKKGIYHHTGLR
human DPP1 enzyme, sequence (P53634 395-463 limits assumed): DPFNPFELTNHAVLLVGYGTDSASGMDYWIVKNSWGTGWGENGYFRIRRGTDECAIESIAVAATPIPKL
Method in brief: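 Recombinant human DPP1, pre-activated with cathepsin L (pH 4.5), was preincubated with compound 10 min at 37 °C in MES pH 6.0, 50 mM NaCl, 5 mM DTT, 1% DMSO. Cleavage of 400 μM (final) H-Gly-Arg-AMC followed by fluorescence (350/450 nm) over 90 min at 37 °C; IC50 from four-parameter logistic fit versus no-compound control.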

DPP1 in HL-60 cells, sequence (P53634 25-463): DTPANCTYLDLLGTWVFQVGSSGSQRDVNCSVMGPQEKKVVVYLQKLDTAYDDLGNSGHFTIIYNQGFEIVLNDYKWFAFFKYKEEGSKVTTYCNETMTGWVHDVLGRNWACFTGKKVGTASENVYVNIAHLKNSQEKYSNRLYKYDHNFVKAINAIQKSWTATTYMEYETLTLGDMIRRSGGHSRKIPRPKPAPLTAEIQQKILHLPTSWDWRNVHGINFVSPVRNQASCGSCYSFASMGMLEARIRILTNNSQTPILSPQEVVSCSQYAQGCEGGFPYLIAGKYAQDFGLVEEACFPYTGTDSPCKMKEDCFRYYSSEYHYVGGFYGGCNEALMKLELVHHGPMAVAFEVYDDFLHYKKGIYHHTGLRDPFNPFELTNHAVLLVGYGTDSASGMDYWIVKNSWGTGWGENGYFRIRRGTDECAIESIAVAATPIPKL

Molecule `N#C[C@H](Cc1ccc(-c2cnc3c(n2)CCCC3)cc1)NC(=O)[C@@H]1CNCCCO1` [Compound A11, (2S)—N-[(1S)-1-cyano-2-[4-(5,6,7,8-tetrahydroquinoxalin-2-yl)phenyl]ethyl]-1,4-oxazepane-2-carboxamide] has an IC50 [1] of over 2.5 nM and an IC50 [2] of over 15 nM.

For `CN1CCCC2(C1)C(=O)N(C)c1ccc(-c3ccc(C[C@@H](C#N)NC(=O)[C@@H]4CNCCCO4)cc3)cc12` (stereo partly drawn) [Compound 18, (2S)—N-[(1S)-1-cyano-2-(4-{1,1′-dimethyl-2-oxospiro[indole-3,3′-piperidin]-5-yl}phenyl)ethyl]-1,4-oxazepane-2-carboxamide], the IC50 [1] was over 2.5 nM and the IC50 [2] was over 15 nM.
